In the assay the test system is BDF1 mice, colon carcinoma 38 sc, T/C %. Kind of assay: NCI In Vivo Anticancer Drug Screen. Data for tumor model Colon Carcinoma 38 (subcutaneous) in B6D2F1 (BDF1) mice. The note with it: endpoint: median tumor weight (est.), higher = larger tumour. Summed up: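 T/C readout: treated group (T) measurement over vehicle control group (C) measurement. Endpoint is survival or tumor size in mice bearing a transplanted tumor.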

[1] abbreviates: dose: 25.0 mg/kg/injection, schedule: Q07DX002 (ip), vehicle: Klucel (hydroxypropylcellulose) (HPC).
The mark [2] stands for this setting: dose: 50.0 mg/kg/injection, schedule: Q07DX002 (ip), vehicle: Klucel (hydroxypropylcellulose) (HPC).
Where [3] appears, read: dose: 100.0 mg/kg/injection, schedule: Q07DX002 (ip), vehicle: Klucel (hydroxypropylcellulose) (HPC).
[4] abbreviates: dose: 200.0 mg/kg/injection, schedule: Q07DX002 (ip), vehicle: Klucel (hydroxypropylcellulose) (HPC).
Setting [5] is: dose: 50.0 mg/kg/injection, schedule: Q07DX002 (ip), vehicle: saline with Tween-80.
Setting [6] is: dose: 200.0 mg/kg/injection, schedule: Q07DX002 (ip), vehicle: saline with Tween-80.
Setting [7] is: dose: 100.0 mg/kg/injection, schedule: Q07DX002 (ip), vehicle: saline with Tween-80.

The results in this text go back to PubChem BioAssay AID212 (DTP/NCI, 2004).

“And” between values parts separate entries of the source, which are not always exact repeats. Equal values may be shown once. Results filed as inconclusive are left out.

Regarding `O=C1C(NCC(O)CO)=C(N2CC2)C(=O)C(NCC(O)CO)=C1N1CC1` (stereo unspecified), the T/C by setting is: (dose: 2.0 mg/kg/injection, schedule: Q07DX002 (ip), vehicle: saline) 105 % of control; (dose: 4.0 mg/kg/injection, schedule: Q07DX002 (ip), vehicle: saline) 60 % of control; (dose: 4.0 mg/kg/injection, schedule: Q07DX002 (ip), vehicle: suspension in saline) 66 % of control; (dose: 8.0 mg/kg/injection, schedule: Q07DX002 (ip), vehicle: saline) 77 % of control; (dose: 8.0 mg/kg/injection, schedule: Q07DX002 (ip), vehicle: suspension in saline) 100 % of control; (dose: 16.0 mg/kg/injection, schedule: Q07DX002 (ip), vehicle: saline) 12 % of control. Also, the T/C (dose: 16.0 mg/kg/injection, schedule: Q07DX002 (ip), vehicle: suspension in saline) was 69 % of control.
For `C1OC1C1CO1` (stereo unspecified), the T/C (dose: 10.0 mg/kg/injection, schedule: Q07DX002 (ip), vehicle: saline) was 99 % of control and 107 % of control; the T/C (dose: 20.0 mg/kg/injection, schedule: Q07DX002 (ip), vehicle: saline) was 119 % of control and 120 % of control; the T/C (dose: 40.0 mg/kg/injection, schedule: Q07DX002 (ip), vehicle: saline) was 96 % of control.
Turning to `COc1cc2cc(c1Cl)N(C)C(=O)C[C@H](OC(=O)[C@H](C)N(C)C(C)=O)[C@]1(C)O[C@H]1[C@H](C)[C@@H]1C[C@@](O)(NC(=O)O1)[C@H](OC)C=C/C=C(\C)C2`, the T/C reads like this: (dose: 0.01 mg/kg/injection, schedule: Q07DX003 (ip), vehicle: Klucel (hydroxypropylcellulose) (HPC)) 99 % of control; (dose: 0.03 mg/kg/injection, schedule: Q07DX003 (ip), vehicle: Klucel (hydroxypropylcellulose) (HPC)) 114 % of control; (dose: 0.06 mg/kg/injection, schedule: Q07DX003 (ip), vehicle: Klucel (hydroxypropylcellulose) (HPC)) 84 % of control; (dose: 0.12 mg/kg/injection, schedule: Q07DX003 (ip), vehicle: Klucel (hydroxypropylcellulose) (HPC)) 73 % of control; (dose: 0.25 mg/kg/injection, schedule: Q07DX003 (ip), vehicle: Klucel (hydroxypropylcellulose) (HPC)) 164 % of control; (dose: 0.5 mg/kg/injection, schedule: Q07DX003 (ip), vehicle: Klucel (hydroxypropylcellulose) (HPC)) 67 % of control. Besides, the T/C (dose: 30.0 micrograms/kg/injection, schedule: Q07DX003 (ip), vehicle: Klucel (hydroxypropylcellulose) (HPC)) is 116 % of control; the T/C (dose: 125.0 micrograms/kg/injection, schedule: Q07DX003 (ip), vehicle: Klucel (hydroxypropylcellulose) (HPC)) is 120 % of control; the T/C (dose: 250.0 micrograms/kg/injection, schedule: Q07DX003 (ip), vehicle: Klucel (hydroxypropylcellulose) (HPC)) was 90 % of control; the T/C (dose: 500.0 micrograms/kg/injection, schedule: Q07DX003 (ip), vehicle: Klucel (hydroxypropylcellulose) (HPC)) is 75 % of control; the T/C (dose: 1000.0 micrograms/kg/injection, schedule: Q07DX003 (ip), vehicle: Klucel (hydroxypropylcellulose) (HPC)) was 57 % of control.
With `C1OC1CN1CCN(CC2CO2)CC1` (stereo unspecified), the T/C by setting is: (dose: 3.12 mg/kg/injection, schedule: Q07DX002 (ip), vehicle: saline) 98 % of control; (dose: 3.12 mg/kg/injection, schedule: Q07DX003 (ip), vehicle: saline) 1 % of control; (dose: 6.25 mg/kg/injection, schedule: Q07DX003 (ip), vehicle: saline) 23 % of control; (dose: 12.5 mg/kg/injection, schedule: Q07DX002 (ip), vehicle: saline) 77 % of control; (dose: 12.5 mg/kg/injection, schedule: Q07DX003 (ip), vehicle: saline) 9 % of control; (dose: 25.0 mg/kg/injection, schedule: Q07DX002 (ip), vehicle: saline) 100 % of control. In addition, the T/C by setting is: (dose: 25.0 mg/kg/injection, schedule: Q07DX003 (ip), vehicle: saline) 20 % of control; (dose: 50.0 mg/kg/injection, schedule: Q07DX002 (ip), vehicle: saline) 77 % of control; (dose: 50.0 mg/kg/injection, schedule: Q07DX003 (ip), vehicle: saline) 4 % of control.
Regarding `O=NN(CCCl)C(=O)Oc1ccc(OC(=O)N(CCCl)N=O)cc1`, the T/C is, setting by setting: (dose: 6.25 mg/kg/injection, schedule: Q07DX002 (ip), vehicle: Klucel (hydroxypropylcellulose) (HPC)) 75 % of control; (dose: 12.5 mg/kg/injection, schedule: Q07DX002 (ip), vehicle: Klucel (hydroxypropylcellulose) (HPC)) 72 % of control; under setting [1], 85 % of control; under setting [2], 54 % of control.
On to `CN(C)c1ccc2c(SCC(=O)OCC(=O)[C@@]3(O)CC[C@H]4[C@@H]5CCC6=CC(=O)C=C[C@]6(C)[C@H]5C(=O)C[C@@]43C)c3ccc(N(C)C)cc3nc2c1`, for which the T/C is, setting by setting: under setting [2], 82 % of control; under setting [3], 69 % of control; under setting [4], 56 % of control; (dose: 400.0 mg/kg/injection, schedule: Q07DX002 (ip), vehicle: Klucel (hydroxypropylcellulose) (HPC)) 77 % of control; (dose: 800.0 mg/kg/injection, schedule: Q07DX002 (ip), vehicle: Klucel (hydroxypropylcellulose) (HPC)) 62 % of control.
As for `C=C[Si]12OCCN(CCO1)CCO2`, the T/C reads like this: under setting [1], 73 % of control and 90 % of control; under setting [3], 29 % of control; under setting [4], 93 % of control and 97 % of control.
Take `COC1(OC)C2C=CC1CC2`: the T/C was 73 % of control (dose: 12.5 mg/kg/injection, schedule: Q07DX002 (ip), vehicle: saline with Tween-80); 105 % of control and 107 % of control under setting [5]; 80 % of control and 94 % of control under setting [6]; 113 % of control and 105 % of control (dose: 400.0 mg/kg/injection, schedule: Q07DX002 (ip), vehicle: saline with Tween-80).
Consider `Cn1c2nc(=O)n(-c3ccccc3)c(=O)c-2nc2c1CCCC2`, for which the T/C is, setting by setting: (dose: 25.0 mg/kg/injection, schedule: Q07DX002 (ip), vehicle: saline with Tween-80) 72 % of control; under setting [7], 70 % of control and 74 % of control; under setting [6], 90 % of control.
With `O=C1C(NCCO)=C(N2CC2)C(=O)C(NCCO)=C1N1CC1`, the T/C was 83 % of control and 91 % of control (dose: 0.12 mg/kg/injection, schedule: Q07DX002 (ip), vehicle: saline); 92 % of control (dose: 0.25 mg/kg/injection, schedule: Q07DX002 (ip), vehicle: saline).
As to `O=C(NP(=O)(N1CC1)N1CC1)c1cc(I)ccc1I`, the T/C (dose: 8.0 mg/kg/injection, schedule: Q07DX002 (ip), vehicle: Klucel (hydroxypropylcellulose) (HPC)) was 105 % of control; the T/C (dose: 16.0 mg/kg/injection, schedule: Q07DX002 (ip), vehicle: Klucel (hydroxypropylcellulose) (HPC)) is 47 % of control; the T/C (dose: 32.0 mg/kg/injection, schedule: Q07DX002 (ip), vehicle: Klucel (hydroxypropylcellulose) (HPC)) was 92 % of control; the T/C (dose: 64.0 mg/kg/injection, schedule: Q07DX002 (ip), vehicle: Klucel (hydroxypropylcellulose) (HPC)) is 55 % of control; the T/C (dose: 128.0 mg/kg/injection, schedule: Q07DX002 (ip), vehicle: Klucel (hydroxypropylcellulose) (HPC)) is 22 % of control; the T/C (dose: 256.0 mg/kg/injection, schedule: Q07DX002 (ip), vehicle: Klucel (hydroxypropylcellulose) (HPC)) is 31 % of control.
In the case of `O=S1(=O)C=C(c2ccccc2)C(c2ccccc2)=C1`, the T/C was 112 % of control and 97 % of control (dose: 6.25 mg/kg/injection, schedule: Q07DX002 (ip), vehicle: saline with Tween-80); 62 % of control and 80 % of control under setting [5]; 84 % of control under setting [7]; 88 % of control under setting [6].
